Measured values from patent publication US8906916B2, “Pyrimidine derivatives as FAK inhibitors” (Merck Patent GmbH, priority 2010, dated 2014).

What follows are compounds tested against focal adhesion kinase (FAK) (Homo sapiens, UniProt Q05397) (assay: FAK kinase assay (autophosphorylation), 384-well flashplate). Details: FAK inhibition, enzymatic autophosphorylation assay, 1 μM ATP.
Chain of focal adhesion kinase (FAK) (Q05397 whole entry): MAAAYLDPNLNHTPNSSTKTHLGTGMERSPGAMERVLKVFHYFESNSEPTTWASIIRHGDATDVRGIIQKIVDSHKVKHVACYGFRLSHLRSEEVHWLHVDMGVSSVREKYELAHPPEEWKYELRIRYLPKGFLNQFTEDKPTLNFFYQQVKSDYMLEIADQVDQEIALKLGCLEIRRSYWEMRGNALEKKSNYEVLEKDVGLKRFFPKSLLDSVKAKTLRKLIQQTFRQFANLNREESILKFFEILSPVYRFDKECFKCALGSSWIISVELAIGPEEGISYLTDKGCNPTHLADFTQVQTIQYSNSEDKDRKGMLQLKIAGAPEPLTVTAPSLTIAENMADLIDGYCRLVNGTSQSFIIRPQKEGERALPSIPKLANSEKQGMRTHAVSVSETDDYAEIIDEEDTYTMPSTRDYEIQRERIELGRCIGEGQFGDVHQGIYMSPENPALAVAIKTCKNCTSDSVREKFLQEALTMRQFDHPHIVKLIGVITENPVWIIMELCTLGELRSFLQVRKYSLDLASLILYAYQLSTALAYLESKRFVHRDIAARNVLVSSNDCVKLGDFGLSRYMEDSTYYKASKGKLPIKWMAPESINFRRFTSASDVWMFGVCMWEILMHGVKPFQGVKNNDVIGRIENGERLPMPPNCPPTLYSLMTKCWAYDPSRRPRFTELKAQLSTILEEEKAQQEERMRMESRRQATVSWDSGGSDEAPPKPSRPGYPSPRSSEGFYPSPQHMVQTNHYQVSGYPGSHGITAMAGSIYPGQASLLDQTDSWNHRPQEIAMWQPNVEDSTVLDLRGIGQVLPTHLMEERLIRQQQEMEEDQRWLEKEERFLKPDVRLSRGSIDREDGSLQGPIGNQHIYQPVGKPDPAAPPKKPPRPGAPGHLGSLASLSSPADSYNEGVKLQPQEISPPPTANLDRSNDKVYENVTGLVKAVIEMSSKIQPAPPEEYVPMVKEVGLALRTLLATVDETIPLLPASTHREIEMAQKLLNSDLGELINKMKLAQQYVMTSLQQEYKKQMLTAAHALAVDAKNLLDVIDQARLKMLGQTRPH
Assay type: biochemical
Method: FAK Kinase Assay (Autophosphorylation)
The focal adhesion kinase (FAK) assay is carried out either as a 384-well flashplate assay (for example for Topcount measurements) or as a 384-well image flashplate assay (for LEADseeker measurements). 2 nM FAK, 400 nM biotinylated substrate (His-TEV-hsFAK (31 686)(K454R) x biotin) and 1 μM ATP (to which […] of 33P-ATP/well has been added) are incubated at 30° C. for 2 hours with or without test compound in a total volume of 50 μl (60 mM Hepes, 10 mM MgCl2, 1.2 mM dithiothreitol, 0.02% of Brij35, 0.1% of BSA, pH 7.5). The reaction is stopped using 25 μl of 200 mM EDTA. After 30 min at 30° C., the liquid is removed, and each well is washed three times with 100 μl of 0.9% sodium chloride solution. Non-specific reaction is determined in the presence of 1 μM EMD 1076893/0(PF-562271). The radioactivity is measured using Topcount (in the case of the use of flashplates) or using LEADseeker (in the case of the use of image flashplates). Results (for example IC50 values) are calculated using, for example, a Symyx Assay Explorer.
Compound `N#CC1(c2ncccc2CCc2ccnc(Nc3ccc4c(c3)CC(=O)N4)n2)CNC1` [A16, 3-(3-{2-[2-(2-oxo-2,3-dihydro-1H-indol-5-ylamino)pyrimidin-4-yl]ethyl}pyridin-2-yl)azetidine-3-carbonitrile] has an IC50 of 3 to 50 µM.
In the case of `N#CCc1ccccc1CCc1ccnc(Nc2ccc3c(c2)CC(=O)N3)n1` [A9], the IC50 is reported as 0.3 to 3 µM.
With `CN(c1ccccc1CCc1ccnc(Nc2cccc(C#N)c2)n1)S(C)(=O)=O` [A28] the IC50 was 0.3 to 3 µM.
With `CN(c1ccccc1CCc1ccnc(Nc2ccc(N3CCOCC3=O)cc2)n1)S(C)(=O)=O` [A33] the IC50 was 0.3 to 3 µM.
`CN(c1ncccc1CCc1ccnc(Nc2ccc3c(c2)CC(=O)N3)n1)S(C)(=O)=O` [A6] showed an IC50 of 0.3 to 3 µM.
With `CN(c1ccccc1CCc1ccnc(Nc2ccc(F)c(C#N)c2)n1)S(C)(=O)=O` [A29] the IC50 was 3 to 50 µM.
`CC(=O)N1CCc2cc(Nc3nccc(CCc4ccccc4N(C)S(C)(=O)=O)n3)ccc21` [A31] gave an IC50 of under 0.3 µM.
Compound `CN(c1ncccc1CCc1ccnc(Nc2cccc(C#N)c2)n1)S(C)(=O)=O` [A22] has an IC50 of 3 to 50 µM.
`Cc1cnc(N(C)S(C)(=O)=O)c(CCc2ccnc(Nc3ccc4c(c3)CC(=O)N4)n2)c1` [A44] showed an IC50 of under 0.3 µM.
With `CS(=O)(=O)c1cccc(CCc2ccnc(Nc3ccc4c(c3)CCC(=O)N4)n2)c1` [A3] the IC50 was 3 to 50 µM.
Work on `CN(c1ccccc1CCc1ccnc(Nc2ccc(NC(=O)c3cccnc3)cc2)n1)S(C)(=O)=O` [A34] yielded an IC50 of under 0.3 µM.
In the case of `CN(c1ccccc1CCc1ccnc(Nc2ccc3c(c2)CCC(=O)N3)n1)S(C)(=O)=O` [A2, N-methyl-N-(2-{2-[2-(2-oxo-1,2,3,4-tetrahydroquinolin-6-ylamino)pyrimidin-4-yl]ethyl}phenyl)methanesulfonamide], the IC50 is reported as under 0.3 µM.
`CN(c1ccccc1CCc1ccnc(Nc2ccc3sc(=O)[nH]c3c2)n1)S(C)(=O)=O` [A30] was tested, and the IC50 was 0.3 to 3 µM.
`CN(c1ccccc1CCc1ccnc(Nc2ccc(S(C)(=O)=O)cc2)n1)S(C)(=O)=O` [A1, N-(2-{2-[2-(4-methanesulfonylphenylamino)pyrimidin-4-yl]ethyl}-phenyl)-N-methylmethanesulfonamide] was tested, and the IC50 was 3 to 50 µM.
`CN(c1ncccc1CCc1ccnc(Nc2ccc(NC(=O)c3cccnc3)cc2)n1)S(C)(=O)=O` [A40] was tested, and the IC50 was 0.3 to 3 µM.
Compound `N#CC1(c2cc(F)ccc2CCc2ccnc(Nc3ccc4c(c3)CC(=O)N4)n2)CCC1` [A46] has an IC50 of 0.3 to 3 µM.
Compound `CN(c1ccccc1CCc1ccnc(Nc2ccc3[nH]c(=O)oc3c2)n1)S(C)(=O)=O` [A27] has an IC50 of 0.3 to 3 µM.
Compound `CN(c1ncccc1CCc1ccnc(Nc2ccc(N3CCCC3=O)cc2)n1)S(C)(=O)=O` [A39] has an IC50 of 0.3 to 3 µM.
Compound `CN(c1ncccc1CCc1ccnc(Nc2ccc(N3C(=O)c4ccccc4C3=O)cc2)n1)S(C)(=O)=O` [A43] has an IC50 of 0.3 to 3 µM.
Compound `CN1C(=O)Cc2cc(Nc3nccc(CCc4cccnc4N(C)S(C)(=O)=O)n3)ccc21` [A21] has an IC50 of 0.3 to 3 µM.
`CN(c1ncccc1CCc1ccnc(Nc2ccc3[nH]c(=O)oc3c2)n1)S(C)(=O)=O` [A20] was tested, and the IC50 was 0.3 to 3 µM.
`O=C1Cc2cc(Nc3ncc(C(F)(F)F)c(CCc4ccccc4)n3)ccc2N1` [A102] showed an IC50 of 0.3 to 3 µM.
`CN(c1ncccc1CCc1ccnc(Nc2ccc3c(c2)CCC(=O)N3)n1)S(C)(=O)=O` [A7] gave an IC50 of 0.3 to 3 µM.
Work on `O=C1CCc2cc(Nc3ncc(Br)c(CCc4ccccc4)n3)ccc2N1` [A101] yielded an IC50 of 0.3 to 3 µM.
With `CN(c1ccccc1CCc1ccnc(Nc2cc(Cl)c(N3CCCC3=O)c(Cl)c2)n1)S(C)(=O)=O` [A36] the IC50 was 0.3 to 3 µM.
For `O=C1CCc2cc(Nc3ncc(C(F)(F)F)c(CCc4ccccc4)n3)ccc2N1` [A103], the IC50 was 0.3 to 3 µM.
`CN(c1ncccc1CCc1ccnc(Nc2ccc3c(c2)n(C)c(=O)n3C)n1)S(C)(=O)=O` [A25] showed an IC50 of 0.3 to 3 µM.
Work on `CN(c1ccccc1CCc1ccnc(Nc2ccc(N3C(=O)c4ccccc4C3=O)cc2)n1)S(C)(=O)=O` [A38] yielded an IC50 of 0.3 to 3 µM.
For `CN(c1ccccc1CCc1ccnc(Nc2ccc3c(c2)CC(=O)N3)n1)S(C)(=O)=O` [A5], the IC50 was under 0.3 µM.
Compound `CN(c1ccccc1CCc1ccnc(Nc2ccc(N3CCCC3=O)cc2)n1)S(C)(=O)=O` [A35] has an IC50 of 0.3 to 3 µM.
`N#CC1(c2ccccc2CCc2ccnc(Nc3ccc4c(c3)CC(=O)N4)n2)CCC1` [A13] gave an IC50 of 0.3 to 3 µM.
`N#CCc1ccc(F)cc1CCc1ccnc(Nc2ccc3c(c2)CC(=O)N3)n1` [A11] gave an IC50 of 0.3 to 3 µM.
Work on `CNC(=O)Cc1ccc(Nc2nccc(CCc3ccccc3N(C)S(C)(=O)=O)n2)cc1` [A32] yielded an IC50 of 0.3 to 3 µM.
In the case of `N#CC1(c2ccc(F)cc2CCc2ccnc(Nc3ccc4c(c3)CC(=O)N4)n2)CCC1` [A45], the IC50 is reported as under 0.3 µM.
`CN(c1ncccc1CCc1ccnc(Nc2ccc(N3CCOCC3=O)cc2)n1)S(C)(=O)=O` [A41] showed an IC50 of 0.3 to 3 µM.

What follows are compounds tested against T1, FAK (Homo sapiens, UniProt Q05397) (assay: Cellular testing of FAK kinase inhibitors: autophosphorylation of FAK at tyrosine 397 in HT29 cells (Luminex)). Details: FAK inhibition, P-Y397-FAK in HT29 cells, 30 min, serum-free.
T1 construct: HT29 cells are sown out with 30,000 cells per well; endogenous in cells; host or cells: HT29
T1 sequence (Q05397 whole entry): as above
Assay type: cell-based
Method: Method for the Cellular Testing of FAK Kinase Inhibitors
For analysis of the cellular activity of FAK, the extent of autophosphorylation of FAK at tyrosine 397 is determined with the aid of a Luminex-based assay in the 96-well format. HT29 cells are sown out with 30,000 cells per well in 100 μl of medium (90% of DMEM/10% of FCS) and incubated on the following day for 30 min with a serial dilution of the test substance (7 concentrations) under serum-free conditions. The cells are subsequently lysed using 90 μl of lysis buffer (20 mM tris/HCl pH 8.0, 150 mM NaCl, 1% of NP40, 10% of glycerol, 1% of phosphatase inhibitor II, 20 mM p-glycerol phosphate, 0.1% of protease inhibitor cocktail III, 0.01% of benzonase) per well, and the lysates are separated off from insoluble cell constituents by means of centrifugation through a 96-well filter plate (0.65 μm). The lysates are incubated at 4° C. overnight with shaking with Luminex beads to which an anti-total FAK antibody is coupled. The detection is carried out on the following day by addition of a P-Y397-FAK antibody and a species-specific PE-labelled secondary antibody. P-Y397-FAK is detected by measurement in the Luminex100 instrument by determination of 100 events per cavity in a measurement time of 60 sec. As pharmacological blank, the signals obtained from cells treated with 30 μM of an FAK reference inhibitor are subtracted from all other batches. The control value used for maximum phosphorylation of FAK at Y397 are the signals from cells treated only with the solvent (0.3% of DMSO). The values of the batches treated with test substance are calculated therefrom as percent of control, and IC50 values are determined by means of Assay Explorer.
Compound `CN(c1ccccc1CCc1ccnc(Nc2ccc(N3CCCCC3=O)c(C#N)c2)n1)S(C)(=O)=O` [A37] has an IC50 of 0.3 to 3 µM.
In the case of `CC(=O)N1CCc2cc(Nc3nccc(CCc4ccccc4N(C)S(C)(=O)=O)n3)ccc21` [A31], the IC50 is reported as 3 to 50 µM.
`CN(c1ncccc1CCc1ccnc(NCc2ccc(=O)[nH]n2)n1)S(C)(=O)=O` [A24] was tested, and the IC50 was 3 to 50 µM.
In the case of `CN(c1ccccc1CCc1ccnc(Nc2ccc(NC(=O)c3cccnc3)cc2)n1)S(C)(=O)=O` [A34], the IC50 is reported as 0.3 to 3 µM.
`CN(c1ccccc1CCc1ccnc(Nc2ccc3c(c2)CCC(=O)N3)n1)S(C)(=O)=O` [A2, N-methyl-N-(2-{2-[2-(2-oxo-1,2,3,4-tetrahydroquinolin-6-ylamino)pyrimidin-4-yl]ethyl}phenyl)methanesulfonamide] showed an IC50 of 3 to 50 µM.
Work on `CN(c1ncccc1CCc1ccnc(Nc2ccc3c(c2)n(C)c(=O)n3C)n1)S(C)(=O)=O` [A25] yielded an IC50 of 3 to 50 µM.
